Values quoted from earlier work in PubChem BioAssay AID1259409 (Chemical Carcinogenesis Research Information System (CCRIS), 2018).

Test system: rodent chemically induced tumor inhibition, incidence and multiplicity
Assay: CCRIS tumor inhibitor studies
Conditions: Carcinogen: N-NITROSOBIS(2-OXYPROPYL)AMINE, 60599-38-4, Route [Inhibitor]: ORAL, Species: HAMSTER, Promoter: NONE USED
From the text: The CCRIS database contains chemical records with carcinogenicity, mutagenicity, tumor promotion, and tumor inhibition test results. It was developed by the National Cancer Institute (NCI). Data are derived from studies cited in primary journals, current awareness tools, NCI reports, and other sources. Test results have been reviewed by experts in carcinogenesis and mutagenesis.
CCRIS provides historical information from the years 1985 - 2011. It is no longer updated.
This is an archive assay for CCRIS tumor inhibitor studies.

SMILES: CCNC(=O)/C=C(C)/C=C/C=C(C)/C=C/C1=C(C)CCCC1(C)C
- tumour outcome (control, treated, inhibition, significance) (Dose [Inhibitor]: 0.05, 0.1 OR 0.2 MILLIMOLAR/KG DIET FOR 32 WK STARTING 1 WK AFTER THE CARCINOGEN DOSE (STUDY DURATION: 33 WK), Strain/Sex: SYRIAN/FEMALE, Target Tissue: Type of Lesion: GALL BLADDER: ADENOMA, Dose [Carcinogen]: 40 MG/KG ONCE): 6/10 (60%), 2/23 (9%), 85%, p<0.025
- tumour outcome (control, treated, inhibition, significance) (Dose [Inhibitor]: 0.05, 0.1 OR 0.2 MILLIMOLAR/KG DIET FOR 32 WK STARTING 1 WK AFTER THE CARCINOGEN DOSE (STUDY DURATION: 33 WK), Strain/Sex: SYRIAN/FEMALE, Target Tissue: Type of Lesion: LIVER: ADENOMA, Dose [Carcinogen]: 40 MG/KG ONCE): 6/10 (60%), 13/23 (59%), 2%, not significant
- tumour outcome (control, treated, inhibition, significance) (Dose [Inhibitor]: 0.05, 0.1 OR 0.2 MILLIMOLAR/KG DIET FOR 32 WK STARTING 1 WK AFTER THE CARCINOGEN DOSE (STUDY DURATION: 33 WK), Strain/Sex: SYRIAN/FEMALE, Target Tissue: Type of Lesion: LUNG: ADENOMA, Dose [Carcinogen]: 40 MG/KG ONCE): 3/10 (30%), 9/23 (41%), -37%, not significant
- tumour outcome (control, treated, inhibition, significance) (Dose [Inhibitor]: 0.05, 0.1 OR 0.2 MILLIMOLAR/KG DIET FOR 32 WK STARTING 1 WK AFTER THE CARCINOGEN DOSE (STUDY DURATION: 33 WK), Strain/Sex: SYRIAN/FEMALE, Target Tissue: Type of Lesion: PANCREAS: ADENOMA, Dose [Carcinogen]: 40 MG/KG ONCE): 10/10 (100%), 22/23 (96%), 4%, not significant
- tumour outcome (control, treated, inhibition, significance) (Dose [Inhibitor]: 0.05, 0.1 OR 0.2 MILLIMOLAR/KG DIET FOR 32 WK STARTING 1 WK AFTER THE CARCINOGEN DOSE (STUDY DURATION: 33 WK), Strain/Sex: SYRIAN/FEMALE, Target Tissue: Type of Lesion: PANCREAS: CARCINOMA, Dose [Carcinogen]: 40 MG/KG ONCE): 4/10 (40%), 10/23 (43%), -8%, not significant
- tumour outcome (control, treated, inhibition, significance) (Dose [Inhibitor]: 0.05, 0.1 OR 0.2 MILLIMOLAR/KG DIET FOR 32 WK STARTING 1 WK AFTER THE CARCINOGEN DOSE (STUDY DURATION: 33 WK), Strain/Sex: SYRIAN/MALE, Target Tissue: Type of Lesion: COMMON DUCT: ADENOMA, Dose [Carcinogen]: 40 MG/KG ONCE): 4/12 (33%), 14/26 (54%), -64%, not significant
- tumour outcome (control, treated, inhibition, significance) (Dose [Inhibitor]: 0.05, 0.1 OR 0.2 MILLIMOLAR/KG DIET FOR 32 WK STARTING 1 WK AFTER THE CARCINOGEN DOSE (STUDY DURATION: 33 WK), Strain/Sex: SYRIAN/MALE, Target Tissue: Type of Lesion: GALL BLADDER: ADENOMA, Dose [Carcinogen]: 40 MG/KG ONCE): 3/12 (25%), 10/26 (39%), -56%, not significant
- tumour outcome (control, treated, inhibition, significance) (Dose [Inhibitor]: 0.05, 0.1 OR 0.2 MILLIMOLAR/KG DIET FOR 32 WK STARTING 1 WK AFTER THE CARCINOGEN DOSE (STUDY DURATION: 33 WK), Strain/Sex: SYRIAN/MALE, Target Tissue: Type of Lesion: LIVER: ADENOMA, Dose [Carcinogen]: 40 MG/KG ONCE): 6/12 (50%), 12/26 (46%), 8%, not significant
- tumour outcome (control, treated, inhibition, significance) (Dose [Inhibitor]: 0.05, 0.1 OR 0.2 MILLIMOLAR/KG DIET FOR 32 WK STARTING 1 WK AFTER THE CARCINOGEN DOSE (STUDY DURATION: 33 WK), Strain/Sex: SYRIAN/MALE, Target Tissue: Type of Lesion: LUNG: ADENOMA, Dose [Carcinogen]: 40 MG/KG ONCE): 1/12 (8%), 2/26 (8%), 0%, not significant
- tumour outcome (control, treated, inhibition, significance) (Dose [Inhibitor]: 0.05, 0.1 OR 0.2 MILLIMOLAR/KG DIET FOR 32 WK STARTING 1 WK AFTER THE CARCINOGENDOSE (STUDY DURATION: 33 WK), Strain/Sex: SYRIAN/MALE, Target Tissue: Type of Lesion: PANCREAS: ADENOMA, Dose [Carcinogen]: 40 MG/KG ONCE): 12/12 (100%), 26/26 (100%), 0%, not significant
- tumour outcome (control, treated, inhibition, significance) (Dose [Inhibitor]: 0.05, 0.1 OR 0.2 MILLIMOLAR/KG DIET FOR 32 WK STARTING 1 WK AFTER THE CARCINOGENDOSE (STUDY DURATION: 33 WK), Strain/Sex: SYRIAN/MALE, Target Tissue: Type of Lesion: PANCREAS: CARCINOMA, Dose [Carcinogen]: 40 MG/KG ONCE): 6/12 (50%), 13/26 (50%), 0%, not significant
- tumour outcome (control, treated, inhibition, significance) (Dose [Inhibitor]: 0.05, 0.1 OR 0.2 MM/KG DIET FOR 32 WK STARTING 1 WK AFTER THE CARCINOGEN DOSE (STUDY DURATION: 33 WK), Strain/Sex: SYRIAN/FEMALE, Target Tissue: Type of Lesion: PANCREAS: ADENOCARCINOMA, Dose [Carcinogen]: 40 MG/KG ONCE): 2/10 (20%), 2/23 (9%), 55%, not significant
- tumour outcome (control, treated, inhibition, significance) (Dose [Inhibitor]: 0.05, 0.1 OR 0.2 MM/KG DIET FOR 32 WK STARTING 1 WK AFTER THE CARCINOGEN DOSE (STUDY DURATION: 33 WK), Strain/Sex: SYRIAN/FEMALE, Target Tissue: Type of Lesion: PANCREAS: CARCINOMA IN SITU, Dose [Carcinogen]: 40 MG/KG, ONCE, ONE WK PRIOR TO START OF AGENT TREATMENT): 1/10 (10%), 7/23 (30%), -200%, not significant
- tumour outcome (control, treated, inhibition, significance) (Dose [Inhibitor]: 0.05, 0.1 OR 0.2 MM/KG DIET FOR 32 WK STARTING 1 WK AFTER THE CARCINOGEN DOSE (STUDY DURATION: 33 WK), Strain/Sex: SYRIAN/FEMALE, Target Tissue: Type of Lesion: PANCREAS: INTRADUCTAL CARCINOMA, Dose [Carcinogen]: 40 MG/KG, ONCE, ONE WK PRIOR TO START OF AGENT TREATMENT): 2/10 (20%), 3/23 (9%), 55%, not significant
- tumour outcome (control, treated, inhibition, significance) (Dose [Inhibitor]: 0.05, 0.1 OR 0.2 MM/KG DIET FOR 32 WK STARTING 1 WK AFTER THE CARCINOGEN DOSE (STUDY DURATION: 33 WK), Strain/Sex: SYRIAN/MALE, Target Tissue: Type of Lesion: PANCREAS: ADENOCARCINOMA, Dose [Carcinogen]: 40 MG/KG, ONCE, ONE WK PRIOR TO START OF AGENT TREATMENT): 1/12 (8%), 2/26 (8%), 0%, not significant
- tumour outcome (control, treated, inhibition, significance) (Dose [Inhibitor]: 0.05, 0.1 OR 0.2 MM/KG DIET FOR 32 WK STARTING 1 WK AFTER THE CARCINOGEN DOSE (STUDY DURATION: 33 WK), Strain/Sex: SYRIAN/MALE, Target Tissue: Type of Lesion: PANCREAS: CARCINOMA IN SITU, Dose [Carcinogen]: 40 MG/KG, ONCE, ONE WK PRIOR TO START OF AGENT TREATMENT): 3/12 (25%), 8/26 (31%), -24%, not significant
- tumour outcome (control, treated, inhibition, significance) (Dose [Inhibitor]: 0.05, 0.1 OR 0.2 MM/KG DIET FOR 32 WK STARTING 1 WK AFTER THE CARCINOGEN DOSE (STUDY DURATION: 33 WK), Strain/Sex: SYRIAN/MALE, Target Tissue: Type of Lesion: PANCREAS: INTRADUCTAL CARCINOMA, Dose [Carcinogen]: 40 MG/KG, ONCE, ONE WK PRIOR TO START OF AGENT TREATMENT): 2/12 (17%), 3/26 (12%), 29%, not significant
- tumour outcome (control, treated, inhibition, significance) (Dose [Inhibitor]: 0.05, 0.1 OR 0.2 MM/KG DIET FOR 32 WK STARTING 1 WK AFTER THE CARCINOGEN DOSE (STUDY DURATION: 33 WK), Strain/Sex: SYRIAN/MALE, Target Tissue: Type of Lesion: PANCREAS: MICROCARCINOMA, Dose [Carcinogen]: 40 MG/KG, ONCE, ONE WK PRIOR TO START OF AGENT TREATMENT): 3/12 (25%), 4/26 (15%), 40%, not significant
